# Structures can show the parent of a compound that is named as a salt.
# What was measured:
# [1] = system: Salmonella enterica serovar Typhimurium SL1344
# RAW264.7 = assay: cytotoxicity (LDH release relative to maximum lysis); higher = more toxic; details: 50 µM; 2 h
# [2] = system: Salmonella enterica serovar Typhimurium SL1344; assay: intracellular MIC (10-fold luminescence reduction); higher = less potent; details: RAW264.7 macrophages
Structure (SMILES),MIC ([1]; LPM pH 5.8) [µM],MIC ([1]; MHB) [µM],MIC ([1]; MOPS glucose minimal medium) [µM],cytotoxicity (RAW264.7) [%],intracellular MIC [2] [µM]
COc1ccc(C(=O)c2ccccc2)c(O)c1 [OXYBENZONE],> 50,> 50,> 50,6.44,1.56
CN(C)[C@@H]1C(O)=C(C(N)=O)C(=O)[C@@]2(O)C(O)=C3C(=O)c4c(O)cccc4[C@@](C)(O)[C@H]3[C@H](O)[C@@H]12 [OXYTETRACYCLINE],≤ 0.78,6.25,12.5,15.7,6.25
C[C@H]1COc2c(C3(N)CC3)c(F)cc3c(=O)c(C(=O)O)cn1c23 [PAZUFLOXACIN MESYLATE],≤ 0.78,≤ 0.78,≤ 0.78,12.2,≤ 0.78
CCn1cc(C(=O)O)c(=O)c2cc(F)c(N3CCN(C)CC3)cc21 [PEFLOXACINE MESYLATE],≤ 0.78,≤ 0.78,≤ 0.78,20.7,1.56
O=C(O)CN(CCN(CC(=O)O)CC(=O)O)CCN(CC(=O)O)CC(=O)O [PENTETIC ACID],≤ 0.78,> 50,> 50,7.12,1.56
CNC[C@H](O)c1cccc(O)c1 [PHENYLEPHRINE HYDROCHLORIDE],> 50,> 50,> 50,6.89,≤ 0.78
CC(=O)[O][Hg][c]1ccccc1 [PHENYLMERCURIC ACETATE],≤ 0.78,≤ 0.78,≤ 0.78,22.2,≤ 0.78
CNC(=O)Oc1ccc2c(c1)[C@]1(C)CCN(C)[C@@H]1N2C [PHYSOSTIGMINE SALICYLATE],12.5,> 50,> 50,7.34,≤ 0.78
CC[C@@H]1C(=O)OC[C@@H]1Cc1cncn1C [PILOCARPINE NITRATE],> 50,> 50,> 50,7.24,≤ 0.78
CC(C)NCC(O)COc1cccc2[nH]ccc12 (stereo not given) [PINDOLOL],> 50,> 50,> 50,7.73,1.56
CCN1CCN(C(=O)N[C@@H](C(=O)N[C@@H]2C(=O)N3[C@@H]2SC(C)(C)[C@@H]3C(=O)O)c2ccccc2)C(=O)C1=O [PIPERACILLIN SODIUM],3.13,12.5,6.25,7.66,3.13
Cc1cc(CC(C)CC(C)(C)C)n(O)c(=O)c1 (stereo not given) [PIROCTONE OLAMINE],≤ 0.78,≤ 0.78,≤ 0.78,20.8,≤ 0.78
Cc1oc(=O)oc1CN1CCN(c2cc3c(cc2F)c(=O)c(C(=O)O)c2n3C(C)S2)CC1 (stereo not given) [PRULIFLOXACIN],≤ 0.78,≤ 0.78,≤ 0.78,13.2,≤ 0.78
CN(C)C(=O)Oc1ccc[n+](C)c1 [PYRIDOSTIGMINE BROMIDE],> 50,> 50,> 50,6.09,> 50
[O-][n+]1ccccc1[S-].[O-][n+]1ccccc1[S-].[Zn+2] [PYRITHIONE ZINC],≤ 0.78,3.13,3.13,84.4,3.13
CO[C@H]1/C=C/O[C@@]2(C)Oc3c(C)c(O)c4c(O)c(c(/C=N/N5CCN(C)CC5)c(O)c4c3C2=O)NC(=O)/C(C)=C\C=C\[C@H](C)[C@H](O)[C@@H](C)[C@@H](O)[C@@H](C)[C@H](OC(C)=O)[C@@H]1C [RIFAMPIN],3.13,50,25,8.58,≤ 0.78

Structure (SMILES),MIC ([1]; LPM pH 5.8) [µM],MIC ([1]; MHB) [µM],MIC ([1]; MOPS glucose minimal medium) [µM],cytotoxicity (RAW264.7) [%],intracellular MIC [2] [µM]
CO[C@H]1/C=C/O[C@@]2(C)Oc3c(C)c(O)c4c(O)c(c5c(nc6cc(C)ccn65)c4c3C2=O)NC(=O)/C(C)=C\C=C\[C@H](C)[C@H](O)[C@@H](C)[C@@H](O)[C@@H](C)[C@H](OC(C)=O)[C@@H]1C [RIFAXIMIN],6.25,12.5,25,6.48,12.5
CN1CCN(c2c(F)cc3c(=O)c(C(=O)O)cn4c3c2SCC4)CC1 [RUFLOXACIN HYDROCHLORIDE],6.25,1.56,≤ 0.78,13.3,≤ 0.78
C[n+]1cc2c3c(ccc2c2ccc4cc5c(cc4c21)OCO5)OCO3 [SANGUINARINE SULFATE],> 50,> 50,> 50,34.2,25
O=C(O)c1cn(-c2ccc(F)cc2)c2cc(N3CCNCC3)c(F)cc2c1=O [SARAFLOXACIN HYDROCHLORIDE],≤ 0.78,≤ 0.78,≤ 0.78,21.5,≤ 0.78
CN[C@H]1CC[C@@H](c2ccc(Cl)c(Cl)c2)c2ccccc21 [SERTRALINE HYDROCHLORIDE],> 50,> 50,> 50,22.7,> 50
C[C@@H]1CN(c2c(F)c(N)c3c(=O)c(C(=O)O)cn(C4CC4)c3c2F)C[C@H](C)N1 [SPARFLOXACIN],≤ 0.78,≤ 0.78,≤ 0.78,16.6,≤ 0.78
O=C(CCCN1CCC2(CC1)C(=O)NCN2c1ccccc1)c1ccc(F)cc1 [SPIPERONE],> 50,> 50,> 50,20.9,> 50
OC[C@H]1O[C@H](O[C@]2(CCl)O[C@H](CCl)[C@@H](O)[C@@H]2O)[C@H](O)[C@@H](O)[C@H]1Cl [SUCRALOSE],> 50,≤ 0.78,6.25,15,≤ 0.78
CCCCCCCCNC(C)C(O)c1ccc(SC(C)C)cc1 (stereo not given) [SULOCTIDIL],50,> 50,> 50,33.3,1.56
CC[C@H]1OC(=O)[C@H](C)C(=O)[C@H](C)[C@@H](O[C@@H]2O[C@H](C)C[C@H](N(C)C)[C@H]2O)[C@](C)(OC)C[C@@H](C)C(=O)[C@H](C)[C@H]2N(CCCCn3cnc(-c4cccnc4)c3)C(=O)O[C@]12C [TELITHROMYCIN],> 50,12.5,12.5,20.8,≤ 0.78
CN(C)[C@@H]1C(O)=C(C(N)=O)C(=O)[C@@]2(O)C(O)=C3C(=O)c4c(O)cccc4[C@@](C)(O)[C@H]3C[C@@H]12 [TETRACYCLINE HYDROCHLORIDE],≤ 0.78,12.5,3.13,7.01,1.56
C[CH2][Hg][S]c1ccccc1C(=O)[O-].[Na+] [THIMEROSAL],≤ 0.78,≤ 0.78,≤ 0.78,76.7,≤ 0.78
Oc1cc(Cl)ccc1Oc1ccc(Cl)cc1Cl [TRICLOSAN],≤ 0.78,≤ 0.78,≤ 0.78,23.5,1.56
COc1cc(Cc2cnc(N)nc2N)cc(OC)c1OC [TRIMETHOPRIM],3.13,≤ 0.78,≤ 0.78,19.9,≤ 0.78
O=C(O)CN(CCN(CC(=O)O)CC(=O)O)CC(=O)O.[Na+].[Na+].[Na+] [TRISODIUM ETHYLENEDIAMINE TETRACETATE],1.56,> 50,> 50,8.27,≤ 0.78
CCCCC(=O)N(Cc1ccc(-c2ccccc2-c2nnn[nH]2)cc1)[C@H](C(=O)O)C(C)C [VALSARTAN],> 50,> 50,> 50,6.04,> 50

# — the supplement of paper PMC6331611
